{"source": "patent US9980943B2", "about": "“Methods of treating muscular dystrophy” (BOARD OF REGENTS OF THE NEVADA SYSTEM OF HIGHER EDUCATION, …, priority 2013, dated 2018)", "assay_type_in_all_cases": "cell-based, mouse", "key": {"[1]": {"test_system": "α7 integrin (LacZ reporter in α7+/LacZ myotubes)", "experiment": "Myotube α7 integrin FDG assay (Burkin assay in myotubes, 96-well)", "settings": "myotubes"}, "[2]": {"test_system": "β-galactosidase in CMV-LacZ C2C12 myotubes", "experiment": "CMV-LacZ secondary screen in C2C12 myotubes (β-Gal stabilizing assay)", "settings": "for CMV-LACZ in Myotubes, signal relative to DMSO: C2C12 CMV-LacZ myotubes, fold relative to DMSO; for CMV-LACZ in Myotubes (β-galactosidase activity relative to DMSO): CMV-LacZ C2C12 myotubes, 96-well format", "method_in_brief": "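First, C2C12 myoblasts were transfected with a linearized CMV-LACZ vector and clonal lines selected by FDG β-gal assay. Then cells were exposed to compounds at 0.5, 1, 5, 10, 20 and 40 μM in 96-well format, two replicates each, and β-gal measured.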"}, "[3]": {"test_system": "α7 integrin (LacZ reporter in α7βgal+/− myoblasts)", "experiment": "Myoblast α7+/LacZ integrin FDG assay (Burkin assay in myoblasts, 96-well)", "settings": "α7+/LacZ myoblasts, 96-well"}}}
{"smiles": "O=Cc1cn(Cc2ccc(F)cc2Cl)c2ccccc12", "note": "[MLS000676974-01]", "values": [{"measurement": "Burkin Assay in Myotubes (signal relative to DMSO)", "setting": "[1]; 0.5 uM", "value": 0.9171}, {"measurement": "Burkin Assay in Myotubes (signal relative to DMSO)", "setting": "[1]; 1 uM", "value": 0.9021}, {"measurement": "Burkin Assay in Myotubes (signal relative to DMSO)", "setting": "[1]; 5 uM", "value": 0.7009}, {"measurement": "Burkin Assay in Myotubes (signal relative to DMSO)", "setting": "[1]; 10 uM", "value": 0.5994}, {"measurement": "Burkin Assay in Myotubes (signal relative to DMSO)", "setting": "[1]; 20 uM", "value": 0.9758}, {"measurement": "Burkin Assay in Myotubes (signal relative to DMSO)", "setting": "[1]; 40 uM", "value": 0.5447}, {"measurement": "CMV-LACZ in Myotubes, signal relative to DMSO", "setting": "[2]; 5 uM", "value": 1.077}, {"measurement": "CMV-LACZ in Myotubes, signal relative to DMSO", "setting": "[2]; 10 uM", "value": 0.4574}, {"measurement": "CMV-LACZ in Myotubes, signal relative to DMSO", "setting": "[2]; 20 uM", "value": 1.083}, {"measurement": "CMV-LACZ in Myotubes, signal relative to DMSO", "setting": "[2]; 40 uM", "value": 0.46}, {"measurement": "Burkin Assay in Myoblasts, value relative to DMSO", "setting": "[3]; 0.5 uM", "value": 1.105}, {"measurement": "Burkin Assay in Myoblasts, value relative to DMSO", "setting": "[3]; 1 uM", "value": 1.137}, {"measurement": "Burkin Assay in Myoblasts, value relative to DMSO", "setting": "[3]; 5 uM", "value": 0.99}, {"measurement": "Burkin Assay in Myoblasts, value relative to DMSO", "setting": "[3]; 10 uM", "value": 1.099}, {"measurement": "Burkin Assay in Myoblasts, value relative to DMSO", "setting": "[3]; 20 uM", "value": 0.6673}, {"measurement": "Burkin Assay in Myoblasts, value relative to DMSO", "setting": "[3]; 40 uM", "value": 0.5184}]}
{"smiles": "COc1ccc(N2CCCC2)c(NC(=O)c2ccc([N+](=O)[O-])o2)c1", "note": "[MLS001221619-01]", "values": [{"measurement": "Burkin Assay in Myotubes (signal relative to DMSO)", "setting": "[1]; 0.5 uM", "value": 0.826}, {"measurement": "Burkin Assay in Myotubes (signal relative to DMSO)", "setting": "[1]; 1 uM", "value": 0.9557}, {"measurement": "Burkin Assay in Myotubes (signal relative to DMSO)", "setting": "[1]; 5 uM", "value": 0.944}, {"measurement": "Burkin Assay in Myotubes (signal relative to DMSO)", "setting": "[1]; 10 uM", "value": 1.012}, {"measurement": "Burkin Assay in Myotubes (signal relative to DMSO)", "setting": "[1]; 20 uM", "value": 0.8603}, {"measurement": "Burkin Assay in Myotubes (signal relative to DMSO)", "setting": "[1]; 40 uM", "value": 1.034}, {"measurement": "CMV-LACZ in Myotubes (β-galactosidase activity relative to DMSO)", "setting": "[2]; 5 uM", "value": 1.172}, {"measurement": "CMV-LACZ in Myotubes (β-galactosidase activity relative to DMSO)", "setting": "[2]; 10 uM", "value": 1.321}, {"measurement": "CMV-LACZ in Myotubes (β-galactosidase activity relative to DMSO)", "setting": "[2]; 20 uM", "value": 1.513}, {"measurement": "CMV-LACZ in Myotubes (β-galactosidase activity relative to DMSO)", "setting": "[2]; 40 uM", "value": 1.781}, {"measurement": "Burkin Assay in Myoblasts, value relative to DMSO", "setting": "[3]; 0.5 uM", "value": 0.6855}, {"measurement": "Burkin Assay in Myoblasts, value relative to DMSO", "setting": "[3]; 1 uM", "value": 0.7633}, {"measurement": "Burkin Assay in Myoblasts, value relative to DMSO", "setting": "[3]; 5 uM", "value": 0.7367}, {"measurement": "Burkin Assay in Myoblasts, value relative to DMSO", "setting": "[3]; 10 uM", "value": 0.6764}, {"measurement": "Burkin Assay in Myoblasts, value relative to DMSO", "setting": "[3]; 20 uM", "value": 0.9648}, {"measurement": "Burkin Assay in Myoblasts, value relative to DMSO", "setting": "[3]; 40 uM", "value": 0.8976}]}
{"smiles": "Cc1ccccc1C(=O)Nc1scc(-c2ccc(Br)cc2)c1C(=O)O", "note": "[MLS001179267-01]", "values": [{"measurement": "Burkin Assay in Myotubes (signal relative to DMSO)", "setting": "[1]; 0.5 uM", "value": 0.947}, {"measurement": "Burkin Assay in Myotubes (signal relative to DMSO)", "setting": "[1]; 1 uM", "value": 0.8787}, {"measurement": "Burkin Assay in Myotubes (signal relative to DMSO)", "setting": "[1]; 5 uM", "value": 0.8908}, {"measurement": "Burkin Assay in Myotubes (signal relative to DMSO)", "setting": "[1]; 10 uM", "value": 0.559}, {"measurement": "Burkin Assay in Myotubes (signal relative to DMSO)", "setting": "[1]; 20 uM", "value": 0.8589}, {"measurement": "Burkin Assay in Myotubes (signal relative to DMSO)", "setting": "[1]; 40 uM", "value": 0.5111}, {"measurement": "CMV-LACZ in Myotubes, signal relative to DMSO", "setting": "[2]; 5 uM", "value": 0.9091}, {"measurement": "CMV-LACZ in Myotubes, signal relative to DMSO", "setting": "[2]; 10 uM", "value": 0.8244}, {"measurement": "CMV-LACZ in Myotubes, signal relative to DMSO", "setting": "[2]; 20 uM", "value": 0.6141}, {"measurement": "CMV-LACZ in Myotubes, signal relative to DMSO", "setting": "[2]; 40 uM", "value": 0.5554}, {"measurement": "Burkin Assay in Myoblasts, value relative to DMSO", "setting": "[3]; 0.5 uM", "value": 0.983}, {"measurement": "Burkin Assay in Myoblasts, value relative to DMSO", "setting": "[3]; 1 uM", "value": 1.031}, {"measurement": "Burkin Assay in Myoblasts, value relative to DMSO", "setting": "[3]; 5 uM", "value": 0.9797}, {"measurement": "Burkin Assay in Myoblasts, value relative to DMSO", "setting": "[3]; 10 uM", "value": 0.9902}, {"measurement": "Burkin Assay in Myoblasts, value relative to DMSO", "setting": "[3]; 20 uM", "value": 0.9305}, {"measurement": "Burkin Assay in Myoblasts, value relative to DMSO", "setting": "[3]; 40 uM", "value": 0.95}]}
{"smiles": "COc1ccc(-c2csc3ncnc(N4CCN(c5ccccc5[N+](=O)[O-])CC4)c23)cc1", "note": "[MLS001149811-01]", "values": [{"measurement": "Burkin Assay in Myotubes (signal relative to DMSO)", "setting": "[1]; 0.5 uM", "value": 0.957}, {"measurement": "Burkin Assay in Myotubes (signal relative to DMSO)", "setting": "[1]; 1 uM", "value": 0.9993}, {"measurement": "Burkin Assay in Myotubes (signal relative to DMSO)", "setting": "[1]; 5 uM", "value": 0.9434}, {"measurement": "Burkin Assay in Myotubes (signal relative to DMSO)", "setting": "[1]; 10 uM", "value": 0.9086}, {"measurement": "Burkin Assay in Myotubes (signal relative to DMSO)", "setting": "[1]; 20 uM", "value": 0.8456}, {"measurement": "Burkin Assay in Myotubes (signal relative to DMSO)", "setting": "[1]; 40 uM", "value": 0.5432}, {"measurement": "CMV-LACZ in Myotubes (β-galactosidase activity relative to DMSO)", "setting": "[2]; 5 uM", "value": 0.9566}, {"measurement": "CMV-LACZ in Myotubes (β-galactosidase activity relative to DMSO)", "setting": "[2]; 10 uM", "value": 1.048}, {"measurement": "CMV-LACZ in Myotubes (β-galactosidase activity relative to DMSO)", "setting": "[2]; 20 uM", "value": 1.122}, {"measurement": "CMV-LACZ in Myotubes (β-galactosidase activity relative to DMSO)", "setting": "[2]; 40 uM", "value": 1.65}, {"measurement": "Burkin Assay in Myoblasts, value relative to DMSO", "setting": "[3]; 0.5 uM", "value": 0.6497}, {"measurement": "Burkin Assay in Myoblasts, value relative to DMSO", "setting": "[3]; 1 uM", "value": 0.8888}, {"measurement": "Burkin Assay in Myoblasts, value relative to DMSO", "setting": "[3]; 5 uM", "value": 1.01}, {"measurement": "Burkin Assay in Myoblasts, value relative to DMSO", "setting": "[3]; 10 uM", "value": 1.022}, {"measurement": "Burkin Assay in Myoblasts, value relative to DMSO", "setting": "[3]; 20 uM", "value": 1}, {"measurement": "Burkin Assay in Myoblasts, value relative to DMSO", "setting": "[3]; 40 uM", "value": 0.6172}]}
